# In patent US20030187056A1, “Live cell procedures to identify to identify compounds modulating intracellular distribution of phosphodiesterase( pde) enzymes” (priority 2000, published 2003):
# “And” between values parts separate entries of the source, which are not always exact repeats. Equal entries are not always repeated. Where two headings read alike, the source gives them in different places.
# Key:
# [1] = target: T1, high affinity Rolipram binding site (HARBS); conditions: read-out: Displacement of [3H] Rolipram (i: μM); Data from Souness and Rao, 1997; cited from earlier work
# T1 construct: Displacement of [3H]; Rolipram (i: μM); other: Data from Souness and Rao, 1997
# [2] = test system: high affinity Rolipram binding site (HARBS); conditions: Data from Souness and Rao, 1997; cited from earlier work
# PDE4A probes = test: Redistribution of the PDE4A probes (summary); type: cell-based; conditions: compound alone
# HSPDE4A4-EGFP [3] = target: T2, HSPDE4A4-EGFP (Homo sapiens, UniProt P27815); test: Spot formation in CHO cells transfected with HSPDE4A4-EGFP; type: cell-based; conditions: observed up to 24 hours
# T2 construct: expressed in transfected cells
# T2 sequence (P27815 whole entry): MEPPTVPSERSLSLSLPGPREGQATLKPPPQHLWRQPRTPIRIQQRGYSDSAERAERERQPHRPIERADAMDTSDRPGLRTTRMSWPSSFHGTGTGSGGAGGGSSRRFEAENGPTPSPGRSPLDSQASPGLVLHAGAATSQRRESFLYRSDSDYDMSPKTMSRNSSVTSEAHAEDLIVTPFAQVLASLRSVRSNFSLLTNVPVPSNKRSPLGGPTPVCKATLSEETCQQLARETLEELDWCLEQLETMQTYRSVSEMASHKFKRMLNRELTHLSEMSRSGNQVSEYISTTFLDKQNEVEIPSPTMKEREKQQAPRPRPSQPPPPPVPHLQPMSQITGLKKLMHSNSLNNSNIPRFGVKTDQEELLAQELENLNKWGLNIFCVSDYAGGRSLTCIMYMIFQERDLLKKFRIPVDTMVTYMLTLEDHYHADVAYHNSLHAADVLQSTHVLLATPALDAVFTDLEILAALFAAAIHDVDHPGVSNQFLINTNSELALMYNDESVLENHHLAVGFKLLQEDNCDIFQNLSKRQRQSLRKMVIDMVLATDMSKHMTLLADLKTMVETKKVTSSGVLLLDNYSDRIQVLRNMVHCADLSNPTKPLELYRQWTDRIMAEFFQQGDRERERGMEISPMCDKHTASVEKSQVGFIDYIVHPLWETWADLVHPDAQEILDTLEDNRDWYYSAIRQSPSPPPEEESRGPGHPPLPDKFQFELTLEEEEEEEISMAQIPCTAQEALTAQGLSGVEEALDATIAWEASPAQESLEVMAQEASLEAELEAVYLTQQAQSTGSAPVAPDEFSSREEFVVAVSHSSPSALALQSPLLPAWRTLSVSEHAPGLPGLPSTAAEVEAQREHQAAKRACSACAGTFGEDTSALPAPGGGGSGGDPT
# Procedure: Chinese hamster ovary cells (CHO), are transfected with the plasmids described in Example 1 above using the transfection agent FuGENE™ 6 (Boehringer Mannheim Corp, USA) according to the method recommended by the suppliers. Stable transfectants are selected using 1 mg/ml G418 sulphate (Calbiochem) in the growth medium (HAM's F12 nutrient mix with Glutamax-1, 10% foetal bovine serum (FBS), 100 μg penicillin-streptomycin mixture ml^−1 (GibcoBRL, supplied by Life Technologies, Denmark). Cell are cultured at 37° C. in 100% humidity and conditions of normal atmospheric gases supplemented with 5% CO2.
# For fluorescence microscopy, cells are allowed to adhere to Lab-Tek chambered coverglasses (Nalge Nunc International, Naperville USA) for at least 24 hours and are then cultured to about 80% confluence. Cells can also be grown in plastic 96-well plates (Polyfiltronics Packard 96-View Plate or Costar Black Plate, clear bottom; both types tissue culture treated) for imaging purposes. Prior to experiments, the cells are cultured over night without G418 sulphate in HAM F-12 medium with glutamax, 100 μg penicillin-streptomycin mixture ml^−1 and 10% FBS. This medium has low autofluorescence enabling fluorescence microscopy of cells straight from the incubator. For certain tests requiring medium of defined composition, particularly with regard to the presence of specific cell growth factors, the HAM's culture medium is replaced prior to imaging with a buffered saline solution (KRW buffer) containing (in mM) 3.6 KCl, 140 NaCl, 2 NaHCO3, 0.5 NaH2PO4, 0.5 MgSO4, 1.5 CaCl2, 10 Hepes, 5 glucose, pH7.4.
# Changes in cellular distribution of a transfected probe can be imaged and quantified in an automated fashion. For this purpose cells are cultured to near 80% to 90% confluence in coverglass chambers or plastic 96-well plates, given the relevant treatment and allowed to respond. At the end of the response period, cells are fixed in 4% formaldehyde buffer (Lillies fixative buffer, pH7.0: Bie and Berntsen A/S, Denmark) for 30 minutes to 2 hours, then washed in phosphate buffered saline (PBS, Life Technologies, Denmark). Nuclear DNA is stained with 1 μM Hoechst 33258 (Molecular Probes, Eugene, Oreg., USA) in PBS for 10 minutes at 25° C., then washed twice in PBS. Automated images are collected on a Nikon Diaphot 300 (Nikon, Japan) using a Nikon Plan Fluor 20X/0.5NA objective lens. The basic microscope is fitted with a motorised specimen stage and motorised focus control (Prior Scientific, Fulbourn, Cambridge UK), excitation filter wheel (Sutter Instruments, Novato Calif. USA) and Photometrics PXL series camera with a KAF1400 CCD chip (Photometrics, Tucson, Ariz. USA), each of these items being under the control of an Macintosh 7200/90 computer (Apple Computer, Cupertino, Calif. USA). Automation of stage positioning, focus, excitation filter selection, and image acquisition is performed using macros written in-house, running under IPLab Spectrum for Macintosh (Scanalytics, Fairfax, Va. USA). Fluorescence illumination comes from a 100 W HBO lamp. Images are collected in pairs, the first using a 340/10 nm excitation filter, the second with a 475RDF40 excitation filter (Chroma, Brattleboro, Vt.). Both images are collected via the same dichroic and emission filters, which are optimised for EGFP applications (XF100 filter set, Omega Optical, Brattleboro, Vt.). While the choice of filters for imaging the nuclear stain (Hoechst 33258) is not well matched to that dye's spectral properties, resulting in lower image intensity, it greatly improves the throughput of the procedure by allowing both images to be collected using the same dichroic and emission filter. This eliminates any image registration problems and focus shifts which would result from using two different filter sets, which would require more steps in the acquisition procedure and more extensive image processing to overcome.
# PDE3 [4] = test: PDE3 inhibition (literature values, PDE3/PDE4 specificity); type: biochemical; conditions: measure of specificity
# Excerpt: These compounds are termed specific to PDE4, since they inhibit other PDEs either weakly or not at all. The inverse ratio between IC50 of a compound to PDE4s versus its inhibition of other cAMP-degrading PDEs, such as PDE3s is often used as a measure of specificity.
# PDE4 = conditions: cited from earlier work
# HSPDE4A1-EGFP = target: T3, HSPDE4A1-EGFP (Homo sapiens, UniProt P27815); test: Spot dispersal in CHO cells transfected with HSPDE4A1-EGFP; type: cell-based; conditions: Rolipram 2 micromolar 2 hours; others over the ranges tested
# T3 construct: the ca. 1.95 kb coding region of HSPDE4A1 (GenBank Acc.no. U97584) is amplified; expressed in transfected cells
# T3 sequence (P27815 1-647 isoform P27815-4): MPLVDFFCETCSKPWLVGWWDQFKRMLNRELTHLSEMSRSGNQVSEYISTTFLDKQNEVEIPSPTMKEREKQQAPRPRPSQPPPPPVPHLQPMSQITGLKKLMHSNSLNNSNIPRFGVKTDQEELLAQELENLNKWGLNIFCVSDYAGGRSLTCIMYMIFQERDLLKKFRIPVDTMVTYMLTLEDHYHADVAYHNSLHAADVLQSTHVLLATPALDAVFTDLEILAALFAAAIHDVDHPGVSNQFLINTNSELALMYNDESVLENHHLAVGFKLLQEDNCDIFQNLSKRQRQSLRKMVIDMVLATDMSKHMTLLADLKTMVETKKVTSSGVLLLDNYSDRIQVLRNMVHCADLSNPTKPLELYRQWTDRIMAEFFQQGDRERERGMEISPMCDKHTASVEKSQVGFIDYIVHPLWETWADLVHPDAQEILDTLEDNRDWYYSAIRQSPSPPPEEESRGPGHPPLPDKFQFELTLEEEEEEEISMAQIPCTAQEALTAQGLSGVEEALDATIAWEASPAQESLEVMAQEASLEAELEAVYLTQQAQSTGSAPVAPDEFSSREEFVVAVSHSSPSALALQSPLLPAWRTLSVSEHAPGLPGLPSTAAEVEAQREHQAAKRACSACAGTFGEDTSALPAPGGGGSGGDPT
# Procedure: (§1) […] The cells are then fixed with 4% formalin buffer (pH7) for 1 hour, washed with PBS and stained with 1 μM Hoechst 33258 in PBS for 10 minutes at 25° C., then washed twice in PBS. Automated images are collected and analysed for the number of spots per cell as described in Example 2.
# as §1
# HSPDE4A4-EGFP [5] = target: T2, HSPDE4A4-EGFP; test: Competitive spot assay: inhibition of Rolipram- or RS25344-induced spot formation, HSPDE4A4-EGFP CHO cells; type: cell-based; conditions: 500 μM theophylline, 100 μM caffeine, 10 μM milrinone, 0.5 μM cilostamide, 100 μM zaprinast
# Procedure: (§2) The cells are then fixed with 4% formaldehyde buffer (pH7) for 1 hour, washed with PBS and stained with 1 μM Hoechst 33258 in PBS for 10 minutes at 25° C., then washed twice in PBS. Automated images are collected and analysed for the number of spots per cell as described in Example 2.
# as §2
# PDE3 [6] = conditions: cited from earlier work
# HSPDE4A4-EGFP [7] = test: Formation of small spots in serum-depleted Rolipram-treated HSPDE4A4-EGFP CHO cells; type: cell-based, Homo sapiens; conditions: 1 or 2 μM ionomycin, KRW buffer with 2 μM Rolipram
# Procedure: Clonal CHO cells stably transfected with the HSPDE4A4-EGFP probe are allowed to adhere to chambered coverglasses in HAM's F12 medium containing 10% FBS and to grow for 4 days without change of medium. […] At the end of this time approximately 95% of the cells contain bright spots when viewed on a fluorescence microscope.
# Individual wells are then treated first with 1 or 2 μM ionomycin, and then a short time later with 50 μM forskolin plus 500 μM IBMX. Within 1 minute of treatment with ionomycin, at either 1 or 2 μM, small spots form in the cytoplasm of the cells (FIGS. 32a and 32b). This occurs in nearly all cells, whether they contain large Rolipram-induced spots or not. Large spots are not affected in any way during the formation of the smaller spots. The small spots will spontaneously disappear within 10 to 20 minutes. Application of forskolin plus IBMX clears them within minutes (FIG. 33a). The larger spots also disperse in time with this treatment, but more slowly (FIG. 33b). The formation of small spots will not occur in serum-replete cells, or in starved cells that then have been given 10% serum for more than 45 minutes. […] The time course of transient appearance of the small spots of the HSPDE4A4-EGFP probe is consistent with that of the Ca^2+ transient generally elicited by ionomycin in treated cells.
# HSPDE4A4-EGFP [8] = target: T2, HSPDE4A4-EGFP; test: Dispersal of preformed Rolipram-induced spots, HSPDE4A4-EGFP CHO cells; type: cell-based
# Procedure: For the microscopic assessment of spot dispersal, stably transfected (non-clonal) cells transfected with the HSPDE4A4-EGFP probe are allowed to adhere to chambered coverglasses in HAM's F12 medium containing 10% FBS. […] Chambered coverglasses are then transferred to a Zeiss 135 inverted microscope for time lapse imaging as described in Example 2, above. At a given point after starting an experiment, a mixture of IBMX and forskolin is added to give final concentrations of 1 mM and 50 μM, respectively. Images are captured at regular intervals to form a time lapse sequence of the response, also as described in Example 2.
# The plate is then run in the FLIPR system at 37° C., with addition of IBMX and forskolin to all wells at final concentrations of 500 μM and 50 μM respectively after the first minute. The experiment is continued for a further 45 minutes, readings being taken at intervals of 1 minute.
# Non-clonal CHO cells stably transfected with the HSPDE4A4-EGFP probe are allowed to adhere to chambered coverglasses in HAM's F12 medium containing 10% FBS and to grow for 24 hours.
# Clonal CHO cells stably transfected with the HSPDE4A4-EGFP probe are allowed to adhere to chambered coverglasses in HAM's F12 medium containing 10% FBS and to grow for 5 days without change of medium, which by this time is serum-depleted.
# Individual wells are then treated with either 50 μM forskolin plus 500 μM IBMX or 200 nM PMA plus 2 μM ionomycin.
(IC50 PDE3)/(IC50 PDE4) (PDE3 [4]),dispersal of PDE4A1 spots (in words) (HSPDE4A1-EGFP),SMILES,Ki [1] [µM],"PDE4/HARBS, ratio (IC50 PDE4)/(Ki for HARBS) [2]",redistribution of the PDE4A probes (PDE4A probes),"formation of spots, compound alone (in words) (HSPDE4A4-EGFP [3])","IC50 (PDE4; Data from Souness and Rao, 1997, read-out: PDE4 inhibition (IC50: μM)) [µM]","IC50 (PDE4; literature values quoted in Example 5 (Saldou 1998; Ahluwalia 1982; Rubin 1991), read-out: IC50 against PDE4) [µM]",effect on spot formation by 2 μM Rolipram (in words) (HSPDE4A4-EGFP [5]),IC50 (PDE3 [6]) [nM],time to formation of small spots in the cytoplasm (HSPDE4A4-EGFP [7]) [min],"cells with bright spots remaining (HSPDE4A4-EGFP [8]; 2 μM ionomycin 50-55 minutes with 2 μM Rolipram, non-clonal, 10% FBS (control 70%))","dispersal of Rolipram-induced spots (in words) (HSPDE4A4-EGFP [8]; FBS-replete cells, 200 nM PMA, 2 μM ionomycin, or 50 μM forskolin plus 1 mM IBMX)"
0.00041,no significant spot dispersal,"COc1cc2c(cc1OC)-c1cc(=Nc3c(C)cc(C)cc3C)n(C)c(=O)n1CC2 [Trequinsin, 9,10-dimethoxy-2-mesitylimino-3-methyl-3,4,6,7-tetrahydro-2H-pyrimido[6,1-a]isoquinolin-4-one]",1.7,023,no redistribution,Neither compound causes formation of spots,0.4,1,–,–,–,–,–
–,–,CN(C(=O)CCCOc1ccc2[nH]c(=O)ccc2c1)C1CCCCC1 [cilostamide],–,–,no redistribution,do not produce spots,–,–,form the same number and type of bright spots,70,–,–,–
–,–,C[C@H](CCC(=O)O)C[C@H](C)C[C@H](C)C(=O)/C=C(\O)[C@H](C)C[C@H](C)C/C=C/[C@@H](C)[C@@H](O)[C@@H](C)[C@@H](O)C[C@@H]1CC[C@@](C)([C@H]2CC[C@@](C)([C@@H](C)O)O2)O1 [ionomycin],–,–,–,–,–,–,–,–,≤ 1,20-40% and 20 to 40%,slowly and in an incomplete manner
